# Data reported in patent publication US7566528B2, “Method for the identification and/or validation of receptor tyrosine kinase inhibitors” (Esbatech AG, priority 2003, dated 2009).
# Entries after “also recorded” stand apart in the source; their conditions may differ. Structures can show the parent of a compound that is named as a salt.
# Assays:
# [1] = target: T1, human receptor tyrosine kinase PDGFR-β (Homo sapiens, UniProt P09619); test: Yeast growth restoration assay, cells expressing PDGFR-β (OD 600 nm); assay type: cell-based; settings: 50 μM in the yeast culture; OD 600 nm light scattering; FIG. 3
# T1 construct: N-terminus of the cytoplasmic domains of c-Met (AA932-1366) and PDGFRβ (AA524-1067); myristoylation signal (membrane anchoring) (N); expressed in transfected cells; host or cells: yeast (S. cerevisiae preferred)
# T1 sequence (P09619 556-1099): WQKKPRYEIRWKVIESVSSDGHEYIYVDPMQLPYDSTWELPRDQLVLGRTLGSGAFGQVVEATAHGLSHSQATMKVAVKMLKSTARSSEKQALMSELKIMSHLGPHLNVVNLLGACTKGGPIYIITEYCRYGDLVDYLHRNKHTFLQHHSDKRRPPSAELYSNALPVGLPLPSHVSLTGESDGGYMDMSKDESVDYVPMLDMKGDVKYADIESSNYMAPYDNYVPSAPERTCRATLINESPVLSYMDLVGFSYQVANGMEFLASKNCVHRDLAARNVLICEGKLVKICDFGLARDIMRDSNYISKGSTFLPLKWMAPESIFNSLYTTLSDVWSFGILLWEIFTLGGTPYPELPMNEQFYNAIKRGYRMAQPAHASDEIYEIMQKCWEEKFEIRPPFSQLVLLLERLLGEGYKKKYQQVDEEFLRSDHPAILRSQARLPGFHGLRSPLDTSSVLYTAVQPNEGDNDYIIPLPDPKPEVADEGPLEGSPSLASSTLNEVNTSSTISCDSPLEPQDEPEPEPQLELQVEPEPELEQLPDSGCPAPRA
# From the text: (§1) Selection of specific inhibition of Receptor Tyrosine Kinase activity in yeast.
# [2] = tested on: human receptor tyrosine kinase RET; test: Yeast growth restoration assay, cells expressing RET (OD 600 nm); assay type: cell-based; settings: 50 μM in the yeast culture; OD 600 nm light scattering; FIG. 3
# From the text: as §1
structure (smiles),measurement,setting,value
Cc1ccc(NC(=O)c2ccc(CN3CCN(C)CC3)cc2)cc1Nc1nccc(-c2cccnc2)n1 [imatinib mesylate],restoration of growth of PDGFR-β-expressing yeast cells,[1],restore growth under selective conditions; also recorded: specifically restores growth
same,restoration of growth of RET-expressing yeast cells,[2],not growth of cells expressing RET
